SMILES strings stand for the structures. Structures can show the parent of a compound that is named as a salt.

This passage reports IC50 results from US8084479B2, “Thiazole compounds and methods of use” (Amgen Inc., priority 2006, dated 2011).

For this assay, the target named is PKBα (Homo sapiens, UniProt P31749). The experiment in a line: PKB kinase assay (P33-labeled ATP, peptide substrate, filter plate). The class given is biochemical. To be noted: PKBα enzyme (full length or kinase domain with pleckstrin domain deleted). The text has this:
The kinase assay for evaluating PKB activity comprises active PKB enzymes, a PKB specific substrate, and P^33-labeled ATP. […] The phosphorylated substrate was captured by a phosphocellulose membrane filter plate (MLLIPORE) and measured by a Wallac Microbeta liquid scintillation counter (Perkin Elmer).

Chain of PKBα (P31749 118-480 limits assumed): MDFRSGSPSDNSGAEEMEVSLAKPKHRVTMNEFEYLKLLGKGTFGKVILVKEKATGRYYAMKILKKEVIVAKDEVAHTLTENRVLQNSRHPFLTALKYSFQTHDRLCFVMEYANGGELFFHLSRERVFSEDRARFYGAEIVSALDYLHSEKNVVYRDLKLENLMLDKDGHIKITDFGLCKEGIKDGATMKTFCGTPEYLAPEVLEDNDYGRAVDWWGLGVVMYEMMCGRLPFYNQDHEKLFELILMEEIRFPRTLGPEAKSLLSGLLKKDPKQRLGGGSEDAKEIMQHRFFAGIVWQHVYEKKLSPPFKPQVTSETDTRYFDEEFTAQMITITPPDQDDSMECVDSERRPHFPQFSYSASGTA

In turn, `COc1ccc(C[C@H](N)CNc2ncc(-c3ccc4c(c3)CC(=O)N4)s2)cc1` [Example 67, 5-(2-((S)-2-amino-3-(4-methoxyphenyl)propylamino)thiazol-5-yl)indolin-2-one] came in with an IC50 of 0.05 to 1 µM.

For the compound `N[C@H](CNc1ncc(-c2ccc3cnccc3n2)s1)Cc1ccc(C(F)(F)F)cc1` [Example 68, N—((S)-2-amino-3-(4-(trifluoromethyl)phenyl)propyl)-5-(1,6-naphthyridin-2-yl)thiazol-2-amine], the IC50 was less than 0.05 µM.

In turn, `COCc1nc(NC[C@@H](N)Cc2ccc(C(F)(F)F)cc2)sc1-c1ccc2c(c1)CC(=O)N2` [Example 69, 5-(2-((S)-2-amino-3-(4-(trifluoromethyl)phenyl)propylamino)-4-(methoxymethyl)thiazol-5-yl)indolin-2-one] registered an IC50 of less than 0.05 µM.

Turning to `CC1C(=O)Nc2ccc(-c3cnc(NC[C@@H](N)Cc4ccccc4)s3)cc21` (stereo partly drawn) [Example 70, 5-(2-((S)-2-amino-3-phenylpropylamino)thiazol-5-yl)-3-methylindolin-2-one], the IC50 is 1 to 10 µM.

In the case of `COCc1nc(NC[C@@H](N)Cc2ccc(C(F)(F)F)cc2)sc1-c1ccc2cnccc2n1` [Example 71, N—((S)-2-amino-3-(4-(trifluoromethyl)phenyl)propyl)-4-(methoxymethyl)-5-(1,6-naphthyridin-2-yl)thiazol-2-amine], the IC50 was less than 0.05 µM.

Compound `N[C@H](CNc1ncc(-c2ccc3c(c2)CC(=O)N3)s1)Cc1c[nH]c2ccccc12` [Example 74, 5-(2-((S)-2-amino-3-(1H-indol-3-yl)propylamino)thiazol-5-yl)indolin-2-one ditrifluoroacetate] gave an IC50 of 1 to 10 µM.

In turn, `Nc1cc2cc(-c3cnc(NC[C@@H](N)Cc4ccc(C(F)(F)F)cc4)s3)ccc2cn1` [Example 75, 6-(2-((S)-2-Amino-3-(4-(trifluoromethyl)phenyl)propylamino)thiazol-5-yl)isoquinolin-3-amine] had a half-maximal inhibitory concentration (IC50) of less than 0.05 µM.

In turn, `Nc1cc2cc(-c3cnc(NC[C@@H](N)Cc4ccc(Cl)cc4)s3)ccc2cn1` [Example 76, 6-(2-((S)-2-Amino-3-(4-chlorophenyl)propylamino)thiazol-5-yl)isoquinolin-3-amine] had an IC50 of less than 0.05 µM.

For the compound `CCOCc1nc(NC[C@@H](N)Cc2ccc(Cl)cc2)sc1-c1nc2ccncc2s1` [Example 77, N—((S)-2-amino-3-(4-chlorophenyl)propyl)-4-(ethoxymethyl)-5-(thiazolo[5,4-c]pyridin-2-yl)thiazol-2-amine], the IC50 fell in the range of 0.05 to 1 µM.

The compound `COc1ccc(C[C@H](N)CNc2ncc(-c3ccc4[nH]c(=O)oc4c3)s2)cc1` [Example 78, 6-(2-((S)-2-amino-3-(4-methoxyphenyl)propylamino)thiazol-5-yl)benzo[d]oxazol-2(3H)-one] yielded a half-maximal inhibitory concentration (IC50) of 0.05 to 1 µM.

`CC(C)(O)C#Cc1nc(NC[C@@H](N)Cc2ccc(C(F)(F)F)cc2)sc1-c1ccc2cnccc2c1` [Example 79, 4-(2-((S)-2-Amino-3-(4-(trifluoromethyl)phenyl)propylamino)-5-(isoquinolin-6-yl)thiazole-4-yl)-2-methylbut-3-yn-2-ol] showed an IC50 of 0.05 to 1 µM.

`N[C@H](CNc1nc(O)c(-c2ccc(F)c(F)c2)s1)Cc1ccc(Cl)cc1` [Example 80, 2-((S)-2-Amino-3-(4-chlorophenyl)propylamino)-5-(3,4-difluorophenyl)thiazol-4-ol dihydrochloride] showed an IC50 of 0.05 to 1 µM.

Turning to `CN(C)Cc1nc(NC[C@@H](N)Cc2ccc(C(F)(F)F)cc2)sc1-c1ccc2cnccc2c1` [Example 81, N—((S)-2-Amino-3-(4-(trifluoromethyl)phenyl)propyl)-4-((dimethylamino)methyl)-5-(isoquinolin-6-yl)thiazol-2-amine], the IC50 is 0.05 to 1 µM.

Take `Cn1c(=O)[nH]c2ccc(-c3cnc(NC[C@@H](N)Cc4cccc(C(F)(F)F)c4)s3)cc21` [Example 82, 6-(2-((S)-2-Amino-3-(3-(trifluoromethyl)phenyl)-propylamino)thiazol-5-yl)-1-methyl-1H-benzo[d]imidazol-2(3H)-one]: the half-inhibitory concentration (IC50) is 0.05 to 1 µM.

`N[C@H](CNc1ncc(-c2ccc3cnccc3c2)s1)Cc1ccc(C(F)(F)F)c(F)c1` [Example 83, N—((S)-2-Amino-3-(3-fluoro-4-(trifluoromethyl)phenyl)propyl)-5-(isoquinolin-6-yl)thiazol-2-amine]: the concentration for half-maximal inhibition (IC50) was less than 0.05 µM.

Compound `N[C@H](CNc1ncc(-c2ccc3[nH]c(=O)oc3c2)s1)Cc1ccc(Cl)c(F)c1` [Example 84, 6-(2-((S)-2-Amino-3-(4-chloro-3-fluorophenyl)propylamino)thiazol-5-yl)benzo[d]oxazol-2(3H)-one] had an IC50 of less than 0.05 µM.

The compound `N[C@H](CNc1ncc(-c2ccc3cnccc3c2)s1)Cc1ccc(Cl)c(F)c1` [Example 85, N—((S)-2-Amino-3-(4-chloro-3-fluorophenyl)propyl)-5-(isoquinolin-6-yl)thiazol-2-amine] returned an IC50 of less than 0.05 µM.

For `N[C@H](CNc1ncc(-c2ccc3c(c2)CC(=O)N3)s1)Cc1ccc(Cl)c(F)c1` [Example 86, 5-(2-((S)-2-Amino-3-(4-chloro-3-fluorophenyl)propylamino)thiazol-5-yl)indolin-2-one], the half-inhibitory concentration (IC50) was less than 0.05 µM.

As for `Cn1c(=O)[nH]c2ccc(-c3cnc(NC[C@@H](N)Cc4ccc(Cl)c(F)c4)s3)cc21` [Example 87, 6-(2-((S)-2-Amino-3-(4-chloro-3-fluorophenyl)propylamino)thiazol-5-yl)-1-methyl-1H-benzo[d]imidazol-2(3H)-one], the IC50 was less than 0.05 µM.

Compound `C[C@@H](c1ccccc1)[C@H](N)CNc1ncc(-c2ccc3[nH]c(=O)oc3c2)s1` [Example 88, 6-(2-((2S,3S)-2-Amino-3-phenylbutylamino)thiazol-5-yl)benzo[d]oxazol-2(3H)-one] yielded an IC50 of 1 to 10 µM.

`C[C@@H](c1ccccc1)[C@H](N)CNc1ncc(-c2ccc3[nH]c(=O)n(C)c3c2)s1` [Example 89, 6-(2-((2S,3S)-2-Amino-3-phenylbutylamino)thiazol-5-yl)-1-methyl-1H-benzo[d]imidazol-2(3H)-one] had an IC50 of 1 to 10 µM.

The compound `C[C@@H](c1ccccc1)[C@H](N)CNc1ncc(-c2ccc3c(c2)CC(=O)N3)s1` [Example 90, 5-(2-((2S,3S)-2-Amino-3-phenylbutylamino)thiazol-5-yl)indolin-2-one] yielded an IC50 of 1 to 10 µM.

Compound `C[C@@H](c1ccccc1)[C@H](N)CNc1ncc(-c2ccc3cnccc3c2)s1` [Example 91, N-((2S,3S)-2-Amino-3-phenylbutyl)-5-(isoquinolin-6-yl)thiazol-2-amine] registered an IC50 of 0.05 to 1 µM.

`C[C@@H](c1ccc(C(F)(F)F)cc1)[C@H](N)CNc1ncc(-c2ccc3c(c2)CC(=O)N3)s1` [Example 92, 5-(2-((2S,3S)-2-Amino-3-(4-(trifluoromethyl)phenyl)butylamino)thiazol-5-yl)indolin-2-one methane sulfonic acid salt] had an IC50 of less than 0.05 µM.

`C[C@@H](c1ccc(C(F)(F)F)cc1)[C@H](N)CNc1ncc(-c2ccc3[nH]c(=O)n(C)c3c2)s1` [Example 93, 6-(2-((2S,3S)-2-amino-3-(4-(trifluoromethyl)phenyl)butylamino)thiazol-5-yl)-1-methyl-1H-benzo[d]imidazol-2(3H)-one] showed an IC50 of 0.05 to 1 µM.

`N[C@H](CNc1ncc(-c2ccc3c(c2)CC(=O)N3)s1)Cc1ccc(OCCCCl)cc1` [Example 94, 5-(2-((S)-2-Amino-3-(4-(3-chloropropoxy)phenyl)propylamino)thiazol-5-yl)indolin-2-one] showed an IC50 of 1 to 10 µM.

Turning to `N[C@H](CNc1ncc(-c2ccc3c(c2)CC(=O)N3)s1)Cc1ccc(OCCCO)cc1` [Example 95, 5-(2-((S)-2-Amino-3-(4-(3-hydroxypropoxy)phenyl)propylamino)-thiazol-5-yl)indolin-2-one], the IC50 was in the range of 1 to 10 µM.

`COCc1nc(NC[C@@H](N)Cc2ccc(Cl)c(Cl)c2)sc1-c1nc2ccncc2s1` [Example 96, N—((S)-2-Amino-3-(3,4-dichlorophenyl)propyl)-4-(methoxymethyl)-5-(thiazolo[5,4-c]pyridin-2-yl)thiazol-2-amine]: the IC50 was less than 0.05 µM.

As to `N[C@H](CNc1ncc(-c2nc3ccncc3s2)s1)Cc1ccc(Cl)c(Cl)c1` [Example 97, N—((S)-2-Amino-3-(3,4-dichlorophenyl)propyl)-5-(thiazolo[5,4-c]pyridin-2-yl)thiazol-2-amine], the IC50 lay in the range of 0.05 to 1 µM.

For `COc1ccc(C[C@H](N)CNc2ncc(-c3nc4ccncc4s3)s2)cc1` [Example 98, N—((S)-2-Amino-3-(4-methoxyphenyl)propyl)-5-(thiazolo[5,4-c]pyridin-2-yl)thiazol-2-amine], the IC50 lay within 0.05 to 1 µM.

`N[C@H](CNc1ncc(-c2nc3ccncc3s2)s1)Cc1ccc(Cl)cc1` [Example 99, N—((S)-2-Amino-3-(4-chlorophenyl)propyl)-5-(thiazolo[5,4-c]pyridin-2-yl)thiazol-2-amine] registered an IC50 of less than 0.05 µM.

`N[C@H](CNc1nc(-c2cccc(F)c2F)c(-c2ccc3cnccc3c2)s1)Cc1ccc(C(F)(F)F)cc1` [Example 100, N—((S)-2-Amino-3-(4-(trifluoromethyl)phenyl)propyl)-4-(2,3-difluorophenyl)-5-(isoquinolin-6-yl)thiazol-2-amine] registered an IC50 of 0.05 to 1 µM.

In the case of `N[C@H](CNc1nc(-c2ccc(F)c(F)c2)c(-c2ccc3cnccc3c2)s1)Cc1ccc(C(F)(F)F)cc1` [Example 101, N—((S)-2-Amino-3-(4-(trifluoromethyl)phenyl)propyl)-4-(3,4-difluorophenyl)-5-(isoquinolin-6-yl)thiazol-2-amine], the IC50 lay in the range of 0.05 to 1 µM.

`N[C@H](CNc1nc(-c2ccc(F)cc2)c(-c2ccc3cnccc3c2)s1)Cc1ccc(C(F)(F)F)cc1` [Example 102, N—((S)-2-Amino-3-(4-(trifluoromethyl)phenyl)propyl)-4-(4-fluorophenyl)-5-(isoquinolin-6-yl)thiazol-2-amine] displayed an IC50 of 0.05 to 1 µM.

What is called IC50 is the concentration that inhibits the measured activity by half.
